Assay: Safety (adverse events, NCI CTCAE v4.0), dose-escalation phase
[1] = dose-escalation QD × 3dQW 6–20 mg
[2] = dose-escalation QD × 5dQW 7–13 mg

Description: Patients who received ≥1 dose of sapanisertib were included in the safety population. […] Adverse events (AEs) were assessed using the National Cancer Institute Common Terminology Criteria for Adverse Events, v4.0. Patients were provided with a home blood-glucose meter to monitor their fasting predose blood-glucose measurements to assess hyperglycaemia as an on-target AE and PD marker.

CC(C)n1nc(-c2ccc3oc(N)nc3c2)c2c(N)ncnc21 [Sapanisertib]
On-study deaths within 30 days of last dose (both phases): 7
Acute kidney injury, treatment-related AE (dose-escalation QD 2–7 mg): 1 (3) n (%)
Anaemia, treatment-related AE (dose-escalation QD 2–7 mg): 3 (10) n (%)
Any AE (dose-escalation QD 2–7 mg): 31 (100) n (%)
Any AE resulting in dose modification/interruption (dose-escalation QD 2–7 mg): 22 (71) n (%)
Any AE resulting in treatment discontinuation (dose-escalation QD 2–7 mg): 11 (35) n (%)
Any SAE (dose-escalation QD 2–7 mg): 13 (42) n (%)
Any grade ≥3 AE (dose-escalation QD 2–7 mg): 19 (61) n (%)
Any treatment-related AE (dose-escalation QD 2–7 mg): 31 (100) n (%)
Any treatment-related SAE (dose-escalation QD 2–7 mg): 4 (13) n (%)
Any treatment-related grade ≥3 AE (dose-escalation QD 2–7 mg): 14 (45) n (%)
Asthenia, treatment-related AE (dose-escalation QD 2–7 mg): 6 (19) n (%)
Asthenia, treatment-related grade ≥3 AE (dose-escalation QD 2–7 mg): 1 (3) n (%)
Blood creatinine increased, treatment-related AE (dose-escalation QD 2–7 mg): 7 (23) n (%)
Decreased appetite, treatment-related AE (dose-escalation QD 2–7 mg): 11 (35) n (%)
Dehydration, treatment-related AE (dose-escalation QD 2–7 mg): 3 (10) n (%)
Dehydration, treatment-related grade ≥3 AE (dose-escalation QD 2–7 mg): 0 (0) n (%)
Diarrhoea, treatment-related AE (dose-escalation QD 2–7 mg): 11 (35) n (%)
Diarrhoea, treatment-related grade ≥3 AE (dose-escalation QD 2–7 mg): 1 (3) n (%)
Dry mouth, treatment-related AE (dose-escalation QD 2–7 mg): 5 (16) n (%)
Dysgeusia, treatment-related AE (dose-escalation QD 2–7 mg): 8 (26) n (%)
Dyspepsia, treatment-related AE (dose-escalation QD 2–7 mg): 1 (3) n (%)
Fatigue, treatment-related AE (dose-escalation QD 2–7 mg): 8 (26) n (%)
Fatigue, treatment-related grade ≥3 AE (dose-escalation QD 2–7 mg): 0 (0) n (%)
Headache, treatment-related AE (dose-escalation QD 2–7 mg): 0 (0) n (%)
Hypercholesterolemia, treatment-related AE (dose-escalation QD 2–7 mg): 5 (16) n (%)
Hyperglycaemia, treatment-related AE (dose-escalation QD 2–7 mg): 25 (81) n (%)
Hyperglycaemia, treatment-related grade ≥3 AE (dose-escalation QD 2–7 mg): 6 (19) n (%)
Hypophosphatemia, treatment-related AE (dose-escalation QD 2–7 mg): 0 (0) n (%)
Hypophosphatemia, treatment-related grade ≥3 AE (dose-escalation QD 2–7 mg): 0 (0) n (%)
Lymphopenia, treatment-related grade ≥3 AE (dose-escalation QD 2–7 mg): 2 (6) n (%)
Nausea, treatment-related AE (dose-escalation QD 2–7 mg): 13 (42) n (%)
Nausea, treatment-related grade ≥3 AE (dose-escalation QD 2–7 mg): 0 (0) n (%)
On-study deaths (dose-escalation QD 2–7 mg): 1 (3) n (%)
Pruritus generalised, treatment-related AE (dose-escalation QD 2–7 mg): 8 (26) n (%)
Pruritus generalised, treatment-related grade ≥3 AE (dose-escalation QD 2–7 mg): 2 (6) n (%)
Pruritus, treatment-related AE (dose-escalation QD 2–7 mg): 2 (6) n (%)
Rash maculo-papular, treatment-related AE (dose-escalation QD 2–7 mg): 3 (10) n (%)
Rash maculo-papular, treatment-related grade ≥3 AE (dose-escalation QD 2–7 mg): 2 (6) n (%)
Rash, treatment-related AE (dose-escalation QD 2–7 mg): 8 (26) n (%)
Rash, treatment-related grade ≥3 AE (dose-escalation QD 2–7 mg): 2 (6) n (%)
Stomatitis (includes oropharyngeal pain and mucosal inflammation), treatment-related AE (dose-escalation QD 2–7 mg): 11 (35) n (%)
Stomatitis, treatment-related grade ≥3 AE (dose-escalation QD 2–7 mg): 0 (0) n (%)
Thrombocytopenia, treatment-related grade ≥3 AE (dose-escalation QD 2–7 mg): 2 (6) n (%)
Vomiting, treatment-related AE (dose-escalation QD 2–7 mg): 8 (26) n (%)
Weight decreased, treatment-related AE (dose-escalation QD 2–7 mg): 1 (3) n (%)
Acute kidney injury, treatment-related AE [1]: 0 (0) n (%)
Anaemia, treatment-related AE [1]: 1 (3) n (%)
Any AE [1]: 33 (100) n (%)
Any AE resulting in dose modification/interruption [1]: 21 (64) n (%)
Any AE resulting in treatment discontinuation [1]: 7 (21) n (%)
Any SAE [1]: 17 (52) n (%)
Any grade ≥3 AE [1]: 25 (76) n (%)
Any treatment-related AE [1]: 32 (97) n (%)
Any treatment-related SAE [1]: 9 (27) n (%)
Any treatment-related grade ≥3 AE [1]: 19 (58) n (%)
Asthenia, treatment-related AE [1]: 10 (30) n (%)
Asthenia, treatment-related grade ≥3 AE [1]: 4 (12) n (%)
Blood creatinine increased, treatment-related AE [1]: 2 (6) n (%)
Decreased appetite, treatment-related AE [1]: 17 (52) n (%)
Dehydration, treatment-related AE [1]: 1 (3) n (%)
Dehydration, treatment-related grade ≥3 AE [1]: 1 (3) n (%)
Diarrhoea, treatment-related AE [1]: 13 (39) n (%)
Diarrhoea, treatment-related grade ≥3 AE [1]: 0 (0) n (%)
Dry mouth, treatment-related AE [1]: 2 (6) n (%)
Dysgeusia, treatment-related AE [1]: 4 (12) n (%)
Dyspepsia, treatment-related AE [1]: 1 (3) n (%)
Fatigue, treatment-related AE [1]: 12 (36) n (%)
Fatigue, treatment-related grade ≥3 AE [1]: 0 (0) n (%)
Headache, treatment-related AE [1]: 3 (9) n (%)
Hypercholesterolemia, treatment-related AE [1]: 4 (12) n (%)
Hyperglycaemia, treatment-related AE [1]: 22 (67) n (%)
Hyperglycaemia, treatment-related grade ≥3 AE [1]: 7 (21) n (%)
Hypophosphatemia, treatment-related AE [1]: 5 (15) n (%)
Hypophosphatemia, treatment-related grade ≥3 AE [1]: 3 (9) n (%)
Lymphopenia, treatment-related grade ≥3 AE [1]: 2 (6) n (%)
Nausea, treatment-related AE [1]: 23 (70) n (%)
Nausea, treatment-related grade ≥3 AE [1]: 2 (6) n (%)
On-study deaths [1]: 2 (6) n (%)
Pruritus generalised, treatment-related AE [1]: 6 (18) n (%)
Pruritus generalised, treatment-related grade ≥3 AE [1]: 1 (3) n (%)
Pruritus, treatment-related AE [1]: 1 (3) n (%)
Rash maculo-papular, treatment-related AE [1]: 1 (3) n (%)
Rash maculo-papular, treatment-related grade ≥3 AE [1]: 0 (0) n (%)
Rash, treatment-related AE [1]: 7 (21) n (%)
Rash, treatment-related grade ≥3 AE [1]: 0 (0) n (%)
Stomatitis (includes oropharyngeal pain and mucosal inflammation), treatment-related AE [1]: 23 (70) n (%)
Stomatitis, treatment-related grade ≥3 AE [1]: 5 (15) n (%)
Thrombocytopenia, treatment-related grade ≥3 AE [1]: 0 (0) n (%)
Vomiting, treatment-related AE [1]: 18 (55) n (%)
Weight decreased, treatment-related AE [1]: 2 (6) n (%)
Acute kidney injury, treatment-related AE [2]: 0 (0) n (%)
Anaemia, treatment-related AE [2]: 0 (0) n (%)
Any AE [2]: 22 (100) n (%)
Any AE resulting in dose modification/interruption [2]: 12 (55) n (%)
Any AE resulting in treatment discontinuation [2]: 6 (27) n (%)
Any SAE [2]: 10 (45) n (%)
Any grade ≥3 AE [2]: 14 (64) n (%)
Any treatment-related AE [2]: 21 (95) n (%)
Any treatment-related SAE [2]: 4 (18) n (%)
Any treatment-related grade ≥3 AE [2]: 8 (36) n (%)
Asthenia, treatment-related AE [2]: 9 (41) n (%)
Asthenia, treatment-related grade ≥3 AE [2]: 3 (14) n (%)
Blood creatinine increased, treatment-related AE [2]: 0 (0) n (%)
Decreased appetite, treatment-related AE [2]: 7 (32) n (%)
Dehydration, treatment-related AE [2]: 0 (0) n (%)
Dehydration, treatment-related grade ≥3 AE [2]: 0 (0) n (%)
Diarrhoea, treatment-related AE [2]: 8 (36) n (%)
Diarrhoea, treatment-related grade ≥3 AE [2]: 0 (0) n (%)
Dry mouth, treatment-related AE [2]: 2 (9) n (%)
Dysgeusia, treatment-related AE [2]: 4 (18) n (%)
Dyspepsia, treatment-related AE [2]: 0 (0) n (%)
Fatigue, treatment-related AE [2]: 7 (32) n (%)

From paper PMC7686313, “Phase 1 study of mTORC1/2 inhibitor sapanisertib (TAK-228) in advanced solid tumours, with an expansion phase in renal, endometrial or bladder cancer” (British Journal of Cancer, 2020)
